# What was measured:
# [1] = test system: subjects with diabetic nephropathy; test: Pirfenidone trial, secondary outcomes: urine albumin/creatinine ratio and urine TGF-beta; format: in vivo, human
# Description: (§1) The primary endpoint was eGFR change from baseline to end of study. Baseline eGFR was determined from two serum creatinine measurements within 3 weeks prior to starting study drug. End of study eGFR was determined from two serum creatinine measurements at week 52 and week 54, prior to stopping study medication. Serum creatinine was measured by the Jaffe method separately at each clinic site laboratory. eGFR was determined by the 4-variable Modification of Diet in Renal Disease Study equation 37. Secondary endpoints included the change in urine ACR and the change in urine TGF-[…]/urine creatinine.
# (§2) Biomarkers were analyzed in plasma and urine from samples collected at both baseline visits and both end-of-study visits, with the two results averaged. Plasma biomarkers were measured by MesoScale Discovery (MSD) platform at the UCSD Clinical Translational Research Institute (CTRI) facility. The MSD platform uses electrochemiluminescence tags on specific antibodies that emit light when electrochemically stimulated. The specific blood biomarkers measured were interferon-y (IFNy), interleukin 1 (IL-1), tumor necrosis factor (TNF), soluble TNF receptor 1 (S TNF R1), YKL40 (also called chitinase like protein or human cartilage glycoprotein-39), brain natriuretic peptide (BNP), and TGF-beta1. Fibroblast growth factor 23 (FGF23) was measured by a C-terminal ELISA assay (Immutopics, San Clemente, Calif.). Urine biomarkers included urine TGF-beta1 (measured by Quantikine, R&D Biosystems, as previously described 29). Urine albumin was measured by nephelometry and urine creatinine was measured by the Jaffe method.
# The pre-specified primary endpoint analysis was the eGFR change, compared between each pirfenidone treatment group with placebo group using the Student t-test. Secondary endpoints (ACR change and urine TGF-beta1 change[…]s were similarly evaluated. When one of the two visits was missing, a single observation was used. Due to missing data the assumption that the data points arose from an identical distribution (equal variance) was put in question. Therefore, in addition to the two-sample t-tests, we also performed permutation tests with 10,000 permutations of the treatment assignments, as well as an analysis of covariance (ANCOVA) 38 with iterated re-weighted least-squares (IWLS) 39 as confirmatory analyses. Data are presented as mean±SD for normally distributed variables, and medians and interquartile ranges for skewed variables.
# [2] = test system: patients with advanced and treatment-refractory focal segmental sclerosis; details: cited from earlier work
# [3] = test system: subjects with diabetic nephropathy; test: Randomized double-blind, placebo-controlled exploratory trial of pirfenidone: eGFR change (primary endpoint); format: in vivo, human; details: for eGFR Change, with imputation: 54 weeks, completers plus subjects who began dialysis, end-of-study eGFR imputed as 10 ml/min per 1.73 m2; for eGFR Change: over 54 weeks, 52 study completers, mean ± SD
# Description: Pirfenidone is an orally-available anti-fibrotic agent that has shown efficacy in animal models of diabetic nephropathy and human focal segmental glomerulosclerosis. A randomized double-blind, placebo-controlled exploratory trial of pirfenidone was performed in subjects with diabetic nephropathy with elevated albuminura and reduced glomerular filtration rate (eGFR) (20-75 ml/min per 1.73 m^2). The pre-specified primary outcome was eGFR change after one year of therapy. 78 subjects were randomly allocated to placebo (n=27), pirfenidone 1200 mg/d (n=26), or pirfenidone 2400 mg/d (n=25). 52 subjects completed the study. During the course of the study, eGFR increased with pirfenidone 1200 mg/d [+3.3±8.5 ml/min per 1.73 m^2 (mean±SD)], whereas eGFR fell with placebo (−2.2±4.8 ml/min per 1.73 m^2, p<0.03 versus pirfenidone 1200 mg/d) and with pirfenidone 2400 mg/d (−1.9±6.7 ml/min per 1.73 m^2, P=0.25 versus placebo). Of the initial 77 subjects, 5 initiated hemodialysis during the study: 4 in the placebo group, 0 in the pirfenidone 1200 mg group and 1 in the pirfenidone 2400 mg group (P=0.25). Baseline serum albumin levels were statistically associated with eGFR improvement in the entire cohort (p=0.001) and in the pirfenidone 2400 group (+0.9 [95% CI 0.7 to 1.1], p=0.03).
# The study protocol was approved by the institutional review boards of the participating centers and all patients provided written consent. Trial sites were Thomas Jefferson University, Philadelphia, Pa.; the Mayo Clinic, Rochester, Minn.; and the NIH Clinical Center, Bethesda, Md. At the pre-study evaluation, the potential study candidates provided a medical history and underwent a complete physical examination, including clinical laboratory determinations and the measurement of vital signs. Entry criteria included a history of type 1 or type 2 diabetes, eGFR 20-75 ml/min/1.73 m2, microalbuminuria or overt proteinuria, blood pressure <140/90 mm Hg on an a ACEi, ARB or the combination, if tolerated. Exclusion criteria included other causes of kidney disease, history of photosensitivity rash, and liver disease. A stratified block randomization scheme was used to maximize the balance of patients with type 1 and type 2 diabetes assigned to each treatment group, using randomization blocks of size 4.
# (§3) Eligible subjects were randomly assigned to receive pirfenidone 1200 mg daily, pirfenidone 2400 mg daily, or placebo for 54 weeks. Subjects received two 400 mg capsules of pirfenidone three times, one capsule of pirfenidone and one capsule of placebo three times daily), or two capsules of placebo three times daily. […] If symptoms persisted, the dose was kept at the lowest tolerable dose (but not less than 50% of original dose) if the subject desired to continue in the protocol.
# as §1
# The pre-specified primary endpoint analysis was the eGFR change, compared between each pirfenidone treatment group with placebo group using the Student t-test. […]
# db/db mice = details: cited from earlier work
# [4] = test system: subjects with diabetic nephropathy; test: Pirfenidone trial: adverse events and study non-completion; format: in vivo, human; details: for non-completion: Aortic dilation / non-completion: Cancer / non-completion: Dialysis / non-completion: Fatigue / non-completion: Gastrointestinal symptoms / non-completion: Heart failure / non-completion: Rash / non-completion: Urinary tract infection: number of subjects (%)
# Description: as §3
# An analysis based on logistic regression models was conducted to determine whether this violates the assumption of missing completely at random (MCAR) 40. This included using baseline characteristics to predict dropout and using eGFR values at a particular visit to predict dropout at the next visit. The latter part of the logistic regression was fitted using generalized estimating equations (GEE) 41. All data analyses were conducted using R and STATA version 11.0 (College Station, Tex.)
# [5] = test system: subjects with diabetic nephropathy; test: Urine metabolomics in subjects treated with pirfenidone; format: in vivo, human; details: second cohort of patients enrolled in a separate trial
# Text: Twenty-four hour urine was collected from both control and D-CKD subjects. A composite quantitative urine organic acid estimation was done using the Agilent 5973 […] and Mass spectrometry. Seventy-six different organic acids were looked at per sample and the results were standardized per mmol of creatinine.
# Based on this study, the basis for why pirfenidone benefited some patients and not others was unclear. Despite available clinical data and protein biomarker studies there was little understanding on how to dose and prescribe this drug in a future study. Urine metabolomics was performed in subjects enrolled in this study at baseline and at 6 months after enrollment. A panel of metabolites based on a specific ratio added predictive value to the outcome on the drug. […] Similar approaches can be employed with other clinical trials to identify which patients will respond to drug, which patients will not, and identify potential new mechanisms. Additionally, metabolite profiles could predict adverse events in patients that are ongoing or will develop in the future.
# [6] = test system: subjects with diabetic nephropathy; test: Pirfenidone trial: changes in plasma biomarkers of inflammation and fibrosis; format: in vivo, human; details: for Change in IFN gamma / Change in Plasma TGF Beta / Change in TNF α / Change in YKL40 / Change in BNP / Change in FGF23 / Change in IL1 / Change in S TNF R1: over 52 weeks; for Change in IFN gamma / Change in Plasma TGF Beta / Change in TNF α / Change in YKL40: mean ± SD; for Change in BNP / Change in FGF23 / Change in IL1 / Change in S TNF R1: median and IQR
# Description: as §2
# In exploratory analysis, linear regression was performed to evaluate associations between baseline eGFR as the dependent variable and each biomarker at baseline as the independent variable. Skewed variables were natural log transformed, and each biomarker was evaluated as “per SD greater” to facilitate comparisons of strengths of association. Biomarker change scores were calculated as (end-of-study value—baseline level). Analysis of variance (ANOVA) was used to determine if the change in biomarker levels differed by randomized treatment assignment. It was also whether baseline biomarker levels were associated with eGFR change using multivariable linear regression. These models were adjusted for the other biomarkers and for clinical factors that are well established markers of progressive diabetic nephropathy, including age, sex, race, SBP, DBP, baseline ACR, and baseline eGFR.
smiles,measurement,setting,value
Cc1ccc(=O)n(-c2ccccc2)c1 [pirfenidone],change in urine albumin/creatinine ratio (ACR) from baseline to end of study,[1]; among study groups,no significant differences
same,albuminuria with treatment,[1]; in vivo,did not decrease
same,"urine TGF-beta levels, increase over 12 months",[1]; pirfenidone 1200 mg group,0.3 pg/mg
same,"urine TGF-beta levels, decline over 12 months",[1]; pirfenidone 2400 mg group,0.1 pg/mg
same,share of subjects who tolerated the dose,"[2]; 2400 mg/d, FSGS open label study",⅔
same,reduction in the rate of estimated glomerular filtration rate (eGFR) decline,[2]; compared to the rate of decline before pirfenidone,25%
same,"eGFR Change, with imputation",[3]; 1200 mg,3.3 ± 8.5 ml/min/1.73 m^2
same,eGFR Change,[3]; 1200 mg,3.3 ± 8.5 ml/min/1.73 m^2
same,"eGFR Change, with imputation",[3]; 2400 mg,−2.1 ± 6.4 ml/min/1.73 m^2
same,eGFR Change,[3]; 2400 mg,−1.9 ± 6.7 ml/min/1.73 m^2
same,subjects who initiated hemodialysis during the study,[3]; pirfenidone 1200 mg group,0
same,mean inter-group difference in eGFR change versus placebo,"[3]; pirfenidone 1200 mg, baseline to end-of-study",+5.5 ml/min per 1.73 m^2
same,"difference in eGFR change versus placebo, baseline to month 6","[3]; pirfenidone 1200 mg, post-hoc two sample t-test",5.3 ml/min/1.73 m^2
same,eGFR change during the course of the study,"[3]; pirfenidone 2400 mg/d, one year (54 weeks), mean±SD",−1.9±6.7 ml/min per 1.73 m^2
same,mean difference in eGFR change versus placebo,"[3]; pirfenidone 2400 mg, baseline to end-of-study",0.3 ml/min per 1.73 m^2
same,albuminuria,db/db mice; diabetic db/db mouse,without lowering albuminuria
same,glomerulosclerosis,"db/db mice; oral, after the onset of established diabetic kidney disease",effective in reducing glomerulosclerosis
same,non-completion: Aortic dilation,[4]; 1200 mg (n = 26),1 (4%)
same,non-completion: Cancer,[4]; 1200 mg (n = 26),0 (0%)
same,non-completion: Dialysis,[4]; 1200 mg (n = 26),0 (0%)
same,non-completion: Fatigue,[4]; 1200 mg (n = 26),0 (0%)
same,non-completion: Gastrointestinal symptoms,[4]; 1200 mg (n = 26),3 (13%)
same,non-completion: Heart failure,[4]; 1200 mg (n = 26),1 (4%)
same,non-completion: Rash,[4]; 1200 mg (n = 26),1 (4%)
same,non-completion: Urinary tract infection,[4]; 1200 mg (n = 26),0 (0%)
same,non-completion: Aortic dilation,[4]; 2400 mg (n = 25),0 (0%)
same,non-completion: Cancer,[4]; 2400 mg (n = 25),One subject
same,non-completion: Dialysis,[4]; 2400 mg (n = 25),1 (4%)
same,non-completion: Fatigue,[4]; 2400 mg (n = 25),3 (12%)
same,non-completion: Gastrointestinal symptoms,[4]; 2400 mg (n = 25),6 (25%)
same,non-completion: Heart failure,[4]; 2400 mg (n = 25),0 (0%)
same,non-completion: Rash,[4]; 2400 mg (n = 25),1 (4%)
same,non-completion: Urinary tract infection,[4]; 2400 mg (n = 25),1 (4%)
same,non-completion: Cancer,"[4]; 2400 mg (n = 25), listed as Prifenidone",1 (4%)
same,incidence of gastrointestinal side effects and fatigue,[4]; pirfenidone groups compared to placebo,appeared to be dose related
same,"Non-Completers, n (%)",[4]; randomized to 1200,9 (35%)
same,"Non-Completers, n (%)",[4]; randomized to 2400,11 (44%)
same,urine citrate with interventional treatment,[5],showed an increase
same,Change in IFN gamma,"[6]; 1200, n = 14",0.1 ± 1.9 pg/mL
same,Change in Plasma TGF Beta,"[6]; 1200, n = 14",-2 ± 26 pg/mL
same,Change in TNF α,"[6]; 1200, n = 14",-0.8 ± 2.2 pg/mL
same,Change in YKL40,"[6]; 1200, n = 14",6 ± 62 ng/mL
same,Change in BNP,"[6]; 1200, n = 14","−22 (−114, 24) pg/ml"
same,Change in FGF23,"[6]; 1200, n = 14","−3 (−23, 33) RU/ml"
same,Change in IL1,"[6]; 1200, n = 14","0.0 (−0.3, 0.4) pg/ml"
same,Change in S TNF R1,"[6]; 1200, n = 14","−140 (−497, 148) pg/ml"
same,Change in IFN gamma,"[6]; 2400, n = 14",0.2 ± 2.5 pg/mL
same,Change in Plasma TGF Beta,"[6]; 2400, n = 14",7 ± 17 pg/mL
same,Change in TNF α,"[6]; 2400, n = 14",-0.7 ± 2.1 pg/mL
same,Change in YKL40,"[6]; 2400, n = 14",30 ± 43 ng/mL
same,Change in BNP,"[6]; 2400, n = 14","45 (−67, 312) pg/ml"
same,Change in FGF23,"[6]; 2400, n = 14","13 (−6, 63) RU/ml"
same,Change in IL1,"[6]; 2400, n = 14","0.0 (−0.2, 0.2) pg/ml"
same,Change in S TNF R1,"[6]; 2400, n = 14","197 (−113, 420) pg/ml"
same,change of inflammatory plasma biomarkers with treatment,[6]; in vivo,none changed significantly
